{"source": "patent US11466273B2", "about": "“Monocarboxylate transporter 4 (MCT4) antisense oligonucleotide (ASO) inhibitors for use as therapeutics in the treatment of cancer” (THE UNIVERSITY OF BRITISH COLUMBIA, priority 2015, dated 2022)", "key": {"MCT4": {"tested_on": "MCT4", "assay": "Percent inhibition of MCT4 by MCT4 ASOs (knock-down after transfection, qPCR/Western blot)", "type": "cell-based, human", "description": "First-generation phosphorothioate-modified ASOs against human MCT4 were rationally designed by selecting sequences containing favourable motifs while excluding unfavourable ones (Matveeva et al., 2000). Specificity of MCT4-targeting sequences, compared to human and mouse genes (at least 3 of 20 bases mismatched), was evaluated using BLAST. Ten sequences SEQ ID No: 1, 4, 5, 9, 11, 30, 36, 37, 40 and 41 (see TABLE A) distributed throughout the length of the transcript with perfect complementarity to all human MCT4 transcript variants (NM_001042422.2, NM_001042423.2, NM_001206950.1, NM_001206951.1, NM_001206952.1, and NM_004207.3) were selected and synthesized by Eurofins MWG Operon. The knock-down efficiencies of these ten ASOs were tested by determining target mRNA and protein expression 48 hours after transfection of cells using qPCR and Western blotting. Two candidate ASOs (#1 and #14—SEQ ID NOs: 1 and 5, respectively) were selected for further studies. Sequences: ASO #1 (SEQ ID NO: 1), 5′-[…]-3′; ASO #14 (SEQ ID NO: 5), 5′-[…]-3′; a published non-targeting control ASO, 5′-[…]-3′ (Mullick et al., 2011; Samuel et al., 2006).\nCells were transfected in 6-well plates with ASOs at 100 nM for 48 hours (unless otherwise indicated) using Oligofectamine™ (Invitrogen™, Carlsbad, Calif.) or with MCT4-targeting siRNAs and controls (Dharmacon™, Chicago, Ill.) at 50 nM for 48 hours using Lipofectamine™ 2000 (Invitrogen™), following the manufacturer's instructions.\nTotal RNA was isolated using the RNeasy Mini Kit™ (Qiagen Inc.™, Hilden, Germany) and cDNA synthesized using the QuantiTect Reverse Transcription Kit™ (Qiagen™). Primers were designed using Primer-BLAST™. qRT-PCR reactions using KAPA SYBR Fast Universal™ (Kapa Biosystems™, Woburn, Mass.) were performed in triplicate in a ViiA 7 Real-Time PCR™ system (Applied Biosystems™, Foster City, Calif.). Target genes were normalized to a geometric average of 3 internal reference genes (Vandesompele et al., 2002).\nCells were harvested and lysed in RIPA buffer (50 mM Tris-Cl pH 7.4, 150 mM NaCl, 1% Igepal, 0.5% Na-deoxycholate, 0.1% SDS) supplemented with a complete protease inhibitor cocktail (Roche, Nutley, N.J.). The protein concentration of the lysate was determined by Pierce BCA Protein Assay™ (Thermo Scientific™, Waltham, Mass.). The lysate was run on 8% SDS polyacrylamide gel (20 ug of protein per lane) and proteins were transferred onto PVDF membrane (Millipore™, Billerica, Mass.). The blot was blocked with the Odyssey™ blocking buffer (Li-cor Biosciences™) and probed with anti-MCT4 antibody. Vinculin was used as a loading control. Following overnight incubation at 4° C., the primary antibody was probed with the corresponding secondary antibody and detected using the Odyssey Infrared Imaging System™ (Li-cor Biosciences™) and Image Studio Version 3.1™ (Li-cor Biosciences™). Densitometry analysis was done using ImageJ (U.S. National Institutes of Health, Bethesda, Md.)."}, "PC3 cells": {"tested_on": "PC3 cells", "assay": "Combination screening, total live PC3 cell numbers", "type": "cell-based, human", "conditions": "Homo sapiens, PC-3; approximate IC50 used for combination screening, 48 hours; read-out: IC50 Concentration", "description": "Human PC-3 and DU145 CRPC cells, human LNCaP prostate cancer cells, and mouse TRAMPC2 prostate cancer cells were purchased from the American Type Culture Collection (ATCC); C4-2 CRPC cells were from the Vancouver Prostate Centre, Vancouver, BC, Canada. Human monolayer cultures were maintained in RPMI-1640 (GE Healthcare Hyclone™, Logan, Utah) supplemented with 10% fetal bovine serum (FBS) (GE Healthcare Hyclone™, Logan, Utah) while TRAMPC2 cells were maintained in DMEM (GE Healthcare Hyclone™, Logan, Utah) supplemented with 5% FBS. For cell counting, cells were trypsinized to form a single cell suspension and counted using a TC20 Automated Cell Counter (Bio-Rad, Hercules, Calif.). Cell viability was assessed by trypan blue exclusion.\nVarious combination strategies were screened at the approximate IC50 concentrations to determine whether synergistic effects may be found by combining current cancer therapeutics (see TABLE D) with MCT4 ASO SEQ ID NO:5. In FIGS. 10 A-C, the total live PC3 cell numbers were assessed 48 hours after treatment with Metformin, Doxycycline and docetaxel both alone and in combination with MCT4 ASO SEQ ID NO:5."}, "[1]": {"conditions": "Table A, ASOs transfected at 100 nM for 48 hours unless otherwise indicated"}, "[2]": {"conditions": "Table B, SEQ ID NO 1 and 16 mer truncations"}}, "note": "Strand notation (5' to 3'): a small letter for the sugar, then the base; units joined by * are phosphorothioate-linked, units joined directly phosphodiester-linked; [ ] holds rarer units or linkages, { } end groups; capitals alone tell only the bases. d = 2'-deoxy (DNA)", "data": [{"compound": "38 (dG*dG*dC*dC*dA*dC*dC*dG*dC*dC*dT*dC*dC*dA*dT*dC*dA*dG*dC*dA; antisense; listed as Homo sapiens) [compound 38]", "values": [{"measurement": "% MCT4 Inhibition", "setting": "MCT4; [1]", "result": 45.92, "unit": "%"}]}, {"compound": "39 (dC*dC*dT*dG*dA*dG*dC*dC*dA*dG*dT*dC*dC*dA*dG*dT*dT*dT*dG*dT; antisense; listed as Homo sapiens) [compound 39]", "values": [{"measurement": "% MCT4 Inhibition", "setting": "MCT4; [1]", "result": 39.46, "unit": "%"}]}, {"compound": "40 (dC*dC*dC*dA*dC*dC*dC*dA*dC*dC*dC*dT*dC*dC*dC*dA*dT*dT*dA*dA; antisense; listed as Homo sapiens) [compound 40]", "values": [{"measurement": "% MCT4 Inhibition", "setting": "MCT4; [1]", "result": -42.05, "unit": "%"}]}, {"compound": "41 (dG*dC*dT*dT*dC*dT*dG*dT*dA*dC*dC*dT*dC*dC*dT*dC*dC*dC*dT*dG; antisense; listed as Homo sapiens) [compound 41]", "values": [{"measurement": "% MCT4 Inhibition", "setting": "MCT4; [1]", "result": 17.02, "unit": "%"}]}, {"compound": "42 (dT*dG*dT*dC*dG*dC*dT*dG*dT*dA*dG*dC*dC*dG*dA*dT*dC*dC*dC; antisense; listed as Homo sapiens) [compound 42]", "values": [{"measurement": "% MCT4 Inhibition", "setting": "MCT4; [1]", "result": 21.20, "unit": "%"}]}, {"compound": "43 (TTAAAGTCACGTTGTCTCG; listed as DNA, chemistry not fully specified; listed as Homo sapiens) [compound 43]", "values": [{"measurement": "% MCT4 Inhibition", "setting": "MCT4; [1]", "result": 0.27, "unit": "%"}]}, {"compound": "44 (TTGCGGCTTGGCTTCACCG; listed as DNA, chemistry not fully specified; listed as Homo sapiens) [compound 44]", "values": [{"measurement": "% MCT4 Inhibition", "setting": "MCT4; [1]", "result": 31.16, "unit": "%"}]}, {"compound": "45 (dC*dA*dC*dA*dG*dC*dT*dC*dC*dT*dC*dC*dC*dA*dT*dG*dG*dC*dC*dA*dG*dG; listed as Rattus norvegicus) [compound 45]", "values": [{"measurement": "% MCT4 Inhibition", "setting": "MCT4; [1]", "result": 22.4, "unit": "%"}]}, {"compound": "46 (dA*dT*dG*dG*dC*dC*dA*dG*dG*dA*dG*dG*dG*dT*dT*dG; antisense; listed as Homo sapiens) [compound 46]", "values": [{"measurement": "% MCT4 Inhibition", "setting": "MCT4; [1]", "result": 76.03, "unit": "%"}, {"measurement": "% MCT4 Inhibition", "setting": "MCT4; [2]", "result": 76.03, "unit": "%"}]}, {"compound": "47 (dC*dA*dT*dG*dG*dC*dC*dA*dG*dG*dA*dG*dG*dG*dT*dT; antisense; listed as Homo sapiens) [compound 47]", "values": [{"measurement": "% MCT4 Inhibition", "setting": "MCT4; [1]", "result": 81.21, "unit": "%"}, {"measurement": "% MCT4 Inhibition", "setting": "MCT4; [2]", "result": 81.21, "unit": "%"}]}, {"compound": "48 (dC*dC*dA*dT*dG*dG*dC*dC*dA*dG*dG*dA*dG*dG*dG*dT; antisense; listed as Homo sapiens) [compound 48]", "values": [{"measurement": "% MCT4 Inhibition", "setting": "MCT4; [1]", "result": 77.65, "unit": "%"}, {"measurement": "% MCT4 Inhibition", "setting": "MCT4; [2]", "result": 77.65, "unit": "%"}]}, {"compound": "49 (dC*dC*dC*dA*dT*dG*dG*dC*dC*dA*dG*dG*dA*dG*dG*dG; antisense; listed as Homo sapiens) [compound 49]", "values": [{"measurement": "% MCT4 Inhibition", "setting": "MCT4; [1]", "result": 65.76, "unit": "%"}, {"measurement": "% MCT4 Inhibition", "setting": "MCT4; [2]", "result": 65.76, "unit": "%"}]}, {"compound": "50 (dT*dC*dC*dC*dA*dT*dG*dG*dC*dC*dA*dG*dG*dA*dG*dG; antisense; listed as Homo sapiens) [compound 50]", "values": [{"measurement": "% MCT4 Inhibition", "setting": "MCT4; [1]", "result": 30.52, "unit": "%"}, {"measurement": "% MCT4 Inhibition", "setting": "MCT4; [2]", "result": 30.52, "unit": "%"}]}, {"compound": "51 (dC*dC*dT*dT*dC*dC*dC*dT*dG*dA*dA*dG*dG*dT*dT*dC*dC*dT*dC*dC; antisense) [compound 51]", "values": [{"measurement": "% MCT4 Inhibition", "setting": "MCT4; [1]", "result": 0.00, "unit": "%"}]}, {"compound": "CC(=O)O[C@@]12CO[C@@H]1C[C@H](O)[C@@]1(C)C(=O)[C@H](O)C3=C(C)[C@@H](OC(=O)[C@H](O)[C@@H](NC(=O)OC(C)(C)C)c4ccccc4)C[C@@](O)([C@@H](OC(=O)c4ccccc4)[C@H]21)C3(C)C", "note": "[Docetaxel]", "values": [{"measurement": "IC50", "setting": "PC3 cells", "result": 0.0025, "unit": "µM"}]}, {"compound": "C[C@H]1c2cccc(O)c2C(=O)C2=C(O)[C@]3(O)C(=O)C(C(N)=O)=C(O)[C@@H](N(C)C)[C@@H]3[C@@H](O)[C@@H]21", "note": "[Doxycycline]", "values": [{"measurement": "IC50", "setting": "PC3 cells", "result": 15, "unit": "µM"}]}, {"compound": "CN(C)C(=N)N=C(N)N", "note": "[Metformin]", "values": [{"measurement": "IC50", "setting": "PC3 cells", "result": 4000, "unit": "µM"}]}]}
